Source: patent US12612403B2, “Nitrogen-containing heterocyclic derivative inhibitor, and preparation method therefor and use thereof” (SHANGHAI HANSOH BIOMEDICAL CO., LTD., priority 2024, dated 2026)

Tests used:
[1] = system: LDLR level in HepG2 cells; assay: Effect on the LDLR level in HepG2 cells (ELISA); format: cell-based, Human; conditions: 48 hours, LDLR in lysate by ELISA
Procedure: 1. Experimental objective: To detect the effect of the compounds on the LDLR protein level.
2. […] A self-adhesive seal was applied, the plate was placed on a plate shaker at room temperature, gently shaken, uniformly mixed, and incubated for 2 hours. • 11) The plate was placed on the plate washer, the washing liquid was set to 350 μL per well, and the plate was washed 4 times repeatedly. • 12) 200 μL of Human LDLR conjugate was added, a self-adhesive seal was applied, and the plate was placed on the plate shaker, well mixed uniformly, and incubated for 2 hours. • 13) The plate was placed on the plate washer, the washing liquid was set to 350 μL per well, and the plate was washed 4 times repeatedly. • 14) 200 μL/well of Substrate solution was added, and the plate was placed in the dark, applied with a self-adhesive seal, placed on the plate shaker, well mixed uniformly, and incubated for 20 minutes. • 15) 50 μL/well of Stop solution was added and mixed uniformly over 20 min. • 16) The optical density (OD) value in each well was measured in sequence at a wavelength of 450 nm by the microplate reader.
3. Experimental data processing method: After the OD values were read by the microplate reader, the OD value of the 0-concentration standard in the standard group was subtracted from the OD values of the standards, control group, and samples to obtain the actual OD values for these wells. […]

[2] = system: PCSK9 secreted by HepG2 cells; assay: Effect on the concentration of PCSK9 secreted by HepG2 cells (ELISA); format: cell-based; conditions: Homo sapiens, 48 hours, PCSK9 in culture medium by ELISA
How it was run: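 HepG2 cells treated with compound for 48 h at 37° C., 5% CO2. Secreted PCSK9 in medium quantified by sandwich ELISA (HRP detection, OD 450 nm) against a 0–10 ng/mL standard curve. Inhibition relative to control; IC50 fitted from concentration–inhibition data.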

LDL-C = conditions: combined with a statin; cited from earlier work

Row | Compound | LDLR expression level [1] [%] | IC50 [2] [µM] | reduce LDL-C (LDL-C)
1 | O=C1c2ncncc2CN1c1ccc(N[C@H]2CC[C@H](Nc3nc4cc(F)ccn4n3)C2)nc1 [Example 21, 6-(6-(((1S,3S)-3-((7-fluoro-[1,2,4]triazolo[1,5-a]pyridin-2-yl)amino)cyclopentyl)amino)pyridin-3-yl)-5,6-dihydro-7H-pyrrolo[3,4-d]pyrimidin-7-one] | 135 |  | 
2 | O=C1c2c(cccc2C(F)(F)F)CN1c1ccc(N[C@H]2CC[C@H](Nc3nc4cc(F)ccn4n3)C2)nc1 [Example 25] | 132 | 17.6 | 
3 | O=C1[C@H](CC[C@H](O)c2ccc(F)cc2)[C@@H](c2ccc(O)cc2)N1c1ccc(F)cc1 [Ezetimibe] |  |  | 15-20%
